The record followed here is patent US11866518B2, “Bicyclic peptide ligands specific for TSLP” (BicycleTx Limited, priority 2020, dated 2024).

Assay [1] addresses T1, TSLP (Homo sapiens, UniProt Q969D9). Kind of assay: Human TSLP Surface Plasmon Resonance (SPR) binding assay. The note with it: biotinylated human TSLP immobilized on streptavidin chip; 20° C.; steady-state or kinetic 1:1 fit; read-out: hTSLP SPR Kd. Further details: The resulting construct spCD33-6×HN-TEV-hTSLP(29-159)-Avi; 6xHN tag with TEV site (N, cleaved yes); made in house; host or cells: Expi293F cells.

Assay [2] addresses T1, TSLP. Description: Human peripheral blood mononuclear cell assay (TSLP-induced CCL17/TARC). Format: cell-based. Further details: host or cells: added to human PBMCs from healthy donors. The note with it: read-out: CCL17 % Inhibition @ 10 μM, […] TSLP. Here is the method:
Human peripheral blood mononuclear cells (PMBCs) were obtained from heparinized whole blood (healthy donors) by density gradient centrifugation using Lymphoprep (StemCell Technologies, Vancouver, BC) according to the manufacturers instructions. The PBMCs were washed twice with PBS containing 2 mM EDTA and 2% fetal calf serum (FCS) and reconstituted in RPMI containing 10% FCS and 2% PenStrep at a final concentration of 3 million cells/mL. This cell suspension (100 μL) was aliquoted into the wells of a 96-well flat bottom tissue culture plate. 5 μL of bicycle peptide or vehicle (0.1% DMSO in complete medium) was then added and mixed with 5 μL of TSLPvehicle (complete medium). […] The plate was incubated for 30 minutes are rt. 10 μL of this mixture was added to cells and the plate was incubated for 24 hours in a 10% CO2, humidified incubator at 37° C. The plate was centrifuged at 300×g for 5 min and the collected supernatants frozen at −20° C. for subsequent CCL17/TARC analysis.
CCL17/TARC was determined by MSD (MesoScale Discovery, Maryland, USA) according to the manufacturer's instructions.

The structures appear in SMILES notation. *1 amine or outer side, *2 acyl side, *3 side chain or, on linkers, in order; H or OH if unused. Where a SMILES comes first, the peptide text is derived from it. Bridges are numbered along the chain shown (N, C = ends). TATA = O=C(CC[*:1])N1CN(C(=O)CC[*:2])CN(C(=O)CC[*:3])C1

T1 sequence (Q969D9 29-159): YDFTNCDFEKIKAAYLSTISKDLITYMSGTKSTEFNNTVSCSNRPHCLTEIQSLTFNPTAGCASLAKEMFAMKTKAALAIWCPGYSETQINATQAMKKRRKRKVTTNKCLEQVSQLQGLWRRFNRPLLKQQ

One may read the Kd as the concentration at which binding is half-saturated. Usually inhibition stands for the change of the read-out against control, counted positive when it falls. For the molecule `CC(=O)N[C@H]1CSCCC(=O)N2CN3CN(C2)C(=O)CCSC[C@H](NC(=O)[C@H](CC(=O)O)NC(=O)[C@H](CCC(=O)O)NC(=O)[C@H](CC(C)C)NC(=O)[C@H](Cc2c[nH]c4ccccc24)NC(=O)[C@H](CCC(N)=O)NC1=O)C(=O)N[C@@H](Cc1c[nH]c2ccccc12)C(=O)N[C@@H](CCCNC(=N)N)C(=O)NCC(=O)N[C@@H](Cc1ccc(Cl)c(Cl)c1)C(=O)N[C@H](C(N)=O)CSCCC3=O` [Example 11, Ac-(SEQ ID NO: 9)], the Kd in assay [1] stood at 5.8 nM. Further, the inhibition at 10 µM in assay [2] was determined as 43%. `CC(=O)N[C@@H](C)C(=O)N[C@H]1CSCCC(=O)N2CN3CN(C2)C(=O)CCSC[C@@H](C(=O)N2CCC[C@H]2C(=O)N[C@@H](CC(C)C)C(=O)N[C@@H](CC(=O)O)C(N)=O)NC(=O)[C@H](Cc2ccccc2)NC(=O)CNC(=O)[C@H](CCCNC(=N)N)NC(=O)[C@H](Cc2c[nH]c4ccccc24)NC(=O)[C@H](CSCCC3=O)NC(=O)[C@H](CC(=O)O)NC(=O)[C@H](CCC(=O)O)NC(=O)[C@H](CC(C)C)NC(=O)[C@H](Cc2c[nH]c3ccccc23)NC(=O)[C@H](CCC(N)=O)NC1=O` [Example 53, Ac-A-(SEQ ID NO: 38)-PLD]: the Kd in assay [1] was determined as 43 nM. In addition, the inhibition at 10 µM in assay [2] is -2%. Take `CC(C)C[C@@H]1NC(=O)[C@H](Cc2c[nH]c3ccccc23)NC(=O)[C@H](CCC(N)=O)NC(=O)[C@@H](NC(=O)[C@H](C)N)CSCCC(=O)N2CN3CN(C2)C(=O)CCSC[C@H](NC(=O)[C@H](CC(=O)O)NC(=O)[C@H](CCC(=O)O)NC1=O)C(=O)N[C@@H](Cc1c[nH]c2ccccc12)C(=O)N[C@@H](CCCNC(=N)N)C(=O)NCC(=O)N[C@@H](Cc1ccccc1)C(=O)N[C@H](C(=O)N[C@@H](CO)C(=O)N[C@@H](CO)C(=O)N[C@@H](CO)C(=O)N[C@@H](CC(=O)O)C(=O)N[C@@H](CCC(N)=O)C(=O)N[C@@H](CO)C(N)=O)CSCCC3=O` [Example 59, A-(SEQ ID NO: 38)-SSSDQS]: the dissociation constant Kd in assay [1] is 52 nM. Moreover, the inhibition at 10 µM in assay [2] came to 2%.

For the molecule `CC(C)C[C@@H]1NC(=O)[C@H](Cc2c[nH]c3ccccc23)NC(=O)[C@H]([C@@H](C)O)NC(=O)[C@@H](NC(=O)[C@H](C)N)CSCCC(=O)N2CN3CN(C2)C(=O)CCSC[C@H](NC(=O)[C@H](CC(=O)O)NC(=O)[C@H](CCC(=O)O)NC1=O)C(=O)N[C@@H](Cc1c[nH]c2ccccc12)C(=O)N[C@@H](CCCNC(=N)N)C(=O)NCC(=O)N[C@@H](Cc1ccccc1)C(=O)N[C@H](C(=O)N[C@@H](C)C(=O)N[C@@H](CC(=O)O)C(=O)N[C@@H](CO)C(N)=O)CSCCC3=O` [Example 63, A-(SEQ ID NO: 49)-ADS] (H-ACTWLEDCWRGFCADS-NH2; linker 2-8-13 via TATA; N-terminus assumed), in assay [1], the Kd came out at 65 nM. The inhibition at 10 µM in assay [2] came to 24%.

For the molecule `CC(C)C[C@@H]1NC(=O)[C@H](Cc2c[nH]c3ccccc23)NC(=O)[C@H](CCC(N)=O)NC(=O)[C@@H](NC(=O)[C@H](C)N)CSCCC(=O)N2CN3CN(C2)C(=O)CCSC[C@H](NC(=O)[C@H](CC(=O)O)NC(=O)[C@H](CCC(=O)O)NC1=O)C(=O)N[C@@H](Cc1c[nH]c2ccccc12)C(=O)N[C@@H](CCCNC(=N)N)C(=O)NCC(=O)N[C@@H](Cc1ccccc1)C(=O)N[C@H](C(=O)N[C@@H](C)C(N)=O)CSCCC3=O` [Example 68, A-(SEQ ID NO: 38)-A], in assay [2], the inhibition at 10 µM is 33%.

On to `CC(C)C[C@@H]1NC(=O)[C@H](Cc2c[nH]c3ccccc23)NC(=O)[C@H](C(C)C)NC(=O)[C@@H](NC(=O)[C@@H]2CCCN2C(=O)[C@@H]2CCCN2C(=O)[C@@H](N)CO)CSCCC(=O)N2CN3CN(C2)C(=O)CCSC[C@H](NC(=O)[C@H](CC(=O)O)NC(=O)[C@H](CC(=O)O)NC1=O)C(=O)N[C@@H](Cc1c[nH]c2ccccc12)C(=O)N[C@@H](CCCNC(=N)N)C(=O)NCC(=O)N[C@@H](Cc1ccccc1)C(=O)N[C@H](C(=O)N[C@@H](C)C(N)=O)CSCCC3=O` [Example 73, SPP-(SEQ ID NO: 54)-A] (H-SPPCVWLDDCWRGFCA-NH2; linker 4-10-15 via TATA; N-terminus and C-terminus assumed), for which the Kd in assay [1] came to 85 nM. Moreover, the inhibition at 10 µM in assay [2] was -11%. In the case of `CC(=O)N[C@H]1CSCCC(=O)N2CN3CN(C2)C(=O)CCSC[C@H](NC(=O)[C@H](CC(=O)O)NC(=O)[C@H](CCC(=O)O)NC(=O)[C@H](CC(C)C)NC(=O)[C@H](Cc2c[nH]c4ccccc24)NC(=O)[C@H](CCC(N)=O)NC1=O)C(=O)N[C@@H](Cc1c[nH]c2ccccc12)C(=O)N[C@@H](CCCNC(=N)N)C(=O)NCC(=O)N[C@@H](Cc1cccc(C)c1)C(=O)N[C@H](C(N)=O)CSCCC3=O` [Example 74, Ac-(SEQ ID NO: 55)], in assay [1], the Kd was determined as 91 nM. For the same molecule, the inhibition at 10 µM in assay [2] is 43%. Taken in the same sequence, the figures for `CC(C)C[C@H](NC(=O)[C@H](Cc1c[nH]cn1)NC(=O)[C@@H]1CSCCC(=O)N2CN3CN(C2)C(=O)CCSC[C@H](NC(=O)[C@H](CC(=O)O)NC(=O)[C@H](CCC(=O)O)NC(=O)[C@H](CC(C)C)NC(=O)[C@H](Cc2c[nH]c4ccccc24)NC(=O)[C@H](Cc2c[nH]cn2)NC(=O)[C@@H](NC(=O)[C@H](C)N)CSCCC3=O)C(=O)N[C@@H](Cc2c[nH]c3ccccc23)C(=O)N[C@@H](CCCNC(=N)N)C(=O)NCC(=O)N[C@@H](Cc2ccccc2)C(=O)N1)C(=O)N[C@@H](CCC(=O)O)C(N)=O` [Example 75, A-(SEQ ID NO: 56)-HLE] (H-ACHWLEDCWRGFCHLE-NH2; linker 2-8-13 via TATA) were 92 nM and -2%. `CC(C)C[C@@H]1NC(=O)[C@H](Cc2c[nH]c3ccccc23)NC(=O)[C@H]([C@@H](C)O)NC(=O)[C@@H](NC(=O)[C@H](C)N)CSCCC(=O)N2CN3CN(C2)C(=O)CCSC[C@H](NC(=O)[C@H](CC(=O)O)NC(=O)[C@H](CC(=O)O)NC1=O)C(=O)N[C@@H](Cc1c[nH]c2ccccc12)C(=O)N[C@@H](CCCNC(=N)N)C(=O)NCC(=O)N[C@@H](Cc1ccccc1)C(=O)N[C@H](C(=O)N[C@@H](C)C(N)=O)CSCCC3=O` [Example 76, A-(SEQ ID NO: 57)-A] (H-ACTWLDDCWRGFCA-NH2; linker 2-8-13 via TATA; N-terminus and C-terminus assumed): the inhibition at 10 µM in assay [2] was 0%. As to `CC(=O)N[C@H]1CSCCC(=O)N2CN3CN(C2)C(=O)CCSC[C@H](NC(=O)[C@H](CC(=O)O)NC(=O)[C@H](CCC(=O)O)NC(=O)[C@H](CC(C)C)NC(=O)[C@H](Cc2c[nH]c4ccccc24)NC(=O)[C@H](CCC(N)=O)NC1=O)C(=O)N[C@@H](Cc1c[nH]c2ccccc12)C(=O)N[C@@H](CCCNC(=N)N)C(=O)NCC(=O)N[C@@H](Cc1ccccc1)C(=O)N[C@H](C(N)=O)CSCCC3=O` [Example 79, Ac-(SEQ ID NO: 38)], the inhibition at 10 µM in assay [2] is -18%. Take `CC(C)C[C@@H]1NC(=O)[C@H](Cc2c[nH]c3ccccc23)NC(=O)[C@H](Cc2c[nH]c3ccccc23)NC(=O)[C@H](CO)NC(=O)[C@H](CO)NC(=O)[C@@H]2CSCCC(=O)N3CN(CN(C3)C(=O)CCSC[C@@H](C(=O)N[C@@H](C)C(N)=O)NC1=O)C(=O)CCSC[C@H](NC(=O)[C@H](C)N)C(=O)N[C@@H](CCCNC(=N)N)C(=O)N[C@@H](CC(=O)O)C(=O)N[C@@H](CC(C)C)C(=O)N[C@@H](CC(=O)O)C(=O)N1CCC[C@H]1C(=O)N[C@@H](Cc1c[nH]c3ccccc13)C(=O)N[C@@H]([C@@H](C)O)C(=O)N2` [Example 164, A-(SEQ ID NO: 122)-A]: the equilibrium dissociation constant (Kd) in assay [1] worked out at 98 nM. In addition, the inhibition at 10 µM in assay [2] was determined as 0%.

`CC(C)C[C@@H]1NC(=O)[C@H](Cc2c[nH]c3ccccc23)NC(=O)[C@H](Cc2c[nH]c3ccccc23)NC(=O)[C@H](CC(N)=O)NC(=O)[C@@H]2CCCN2C(=O)[C@@H]2CSCCC(=O)N3CN(CN(C3)C(=O)CCSC[C@H](NC(=O)[C@@H]3CCCN3C(=O)[C@H](Cc3c[nH]cn3)NC(=O)[C@H](C)N)C(=O)N[C@@H](C)C(=O)N[C@@H](CC(=O)O)C(=O)N[C@@H](CC(C)C)C(=O)N[C@@H](CC(=O)O)C(=O)N3CCC[C@H]3C(=O)N[C@@H](Cc3c[nH]c4ccccc34)C(=O)N[C@@H]([C@@H](C)O)C(=O)N2)C(=O)CCSC[C@@H](C(=O)N[C@@H](C)C(N)=O)NC1=O` [Example 165, AHP-(SEQ ID NO: 123)-A] (H-AHPCADLDPWTCPNWWLCA-NH2; linker 4-12-18 via TATA; N-terminus and C-terminus assumed): in assay [1], the Kd worked out at 30 nM. In addition, in assay [2], the inhibition at 10 µM stood at 33%. Consider `CC(C)C[C@@H]1NC(=O)[C@H](Cc2c[nH]c3ccccc23)NC(=O)[C@H](Cc2c[nH]c3ccccc23)NC(=O)[C@H](CO)NC(=O)[C@H](CO)NC(=O)[C@@H]2CSCCC(=O)N3CN(CN(C3)C(=O)CCSC[C@H](NC(=O)[C@@H](NC(=O)[C@H](CCC(N)=O)NC(=O)[C@@H](NC(=O)[C@@H](NC(=O)[C@H](C)NC(=O)[C@@H](N)Cc3ccc(O)cc3)[C@@H](C)O)[C@@H](C)O)C(C)C)C(=O)N[C@@H](CCCNC(=N)N)C(=O)N[C@@H](CC(=O)O)C(=O)N[C@@H](CC(C)C)C(=O)N[C@@H](CC(=O)O)C(=O)N3CCC[C@H]3C(=O)N[C@@H](Cc3c[nH]c4ccccc34)C(=O)N[C@@H]([C@@H](C)O)C(=O)N2)C(=O)CCSC[C@@H](C(=O)N[C@@H](C)C(N)=O)NC1=O` [Example 171, YATTQV-(SEQ ID NO: 122)-A], for which the Kd in assay [1] stood at 48 nM. Further, the inhibition at 10 µM in assay [2] stood at 36%.
